Test results as given in US10323026B2, “Heterocyclic compound” (Takeda Pharmaceutical Company Limited, priority 2016, dated 2019).
Like-named read-outs stand apart in the source and are kept apart here.

How the values were obtained:
[1] = molecular target: T1, His-hMAGL (recombinant polyhistidine tagged human MAGL protein) (Homo sapiens, UniProt Q99685); test: Measurement of MAGL inhibitory activity (RapidFire-mass spectrometry of arachidonic acid produced from 2-arachidonylglycerol); format: biochemical; details: read-out: % inhibition (10 μM)
T1 construct: polyhistidine (His) (N); made in house; host or cells: E. coli BL21(DE3)
T1 sequence (Q99685 1-303): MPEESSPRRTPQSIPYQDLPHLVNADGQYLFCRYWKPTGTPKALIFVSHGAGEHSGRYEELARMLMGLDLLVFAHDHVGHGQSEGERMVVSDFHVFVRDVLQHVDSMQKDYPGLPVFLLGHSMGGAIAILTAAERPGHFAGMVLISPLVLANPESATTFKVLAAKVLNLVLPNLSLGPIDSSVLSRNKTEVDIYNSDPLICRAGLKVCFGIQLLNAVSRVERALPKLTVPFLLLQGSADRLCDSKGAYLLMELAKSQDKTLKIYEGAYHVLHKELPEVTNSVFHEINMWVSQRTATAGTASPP
Procedure, shortened: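 After quenching with acetonitrile containing 3 μM arachidonic acid-d8, the arachidonic acid formed was measured by online SPE RapidFire-MS/MS in negative SRM mode and corrected against the d8 standard. Inhibition (%) was calculated relative to compound-free and enzyme-free groups.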

[2] = tested on: intracerebral 2-AG and arachidonic acid; test: Measurement of intracerebral 2-AG and arachidonic acid concentrations; format: in vivo, mouse (C57BL/6J); details: for 2-AG concentration / arachidonic acid concentration: cerebrum of male C57BL/6J mice, 3 mg/kg body weight by gavage, isolated 1 hour after administration; for 2-AG concentration: control 9.9; for arachidonic acid concentration: control 163.5; for migration into brain / intracerebral 2-AG concentration compared to control / intracerebral arachidonic acid concentration compared to control: oral administration to C57BL/6J mice; for intracerebral 2-AG concentration compared to control / intracerebral arachidonic acid concentration compared to control: result in words
Procedure: As the mouse, 8-week-old male C57BL/6J mice (CLEA Japan, Inc.) were used (6 mice/group). Administration solutions were prepared by suspending the test compounds (compound 1 (compound of Example 6), compound 2 (compound of Example 93) and compound 3 (compound of Example 97)) in 0.5% methylcellulose solution (Wako Pure Chemical Industries, Ltd.). The dose of the test compound was prepared to be 3 mg/kg body weight/10 mL. The test compounds were administered by gavage at 3 mg/kg body weight. The cerebrum was isolated after the administration of the test compound (isolation time after the administration of the test compound is shown in Table 3), and the cerebrum hemisphere was extracted. The obtained cerebrum hemisphere was frozen on dry ice, and the frozen tissue weight was measured.
The cerebral tissue weight was measured, and cerebral tissue was homogenized with 4-fold (v/w) of isopropanol (IPA), and double diluted with IPA. To the diluted sample (200 μL) was added internal standard solution (5 μL) ([5,6,8,9,11,12,14,15-D8]-(5Z,8Z,11Z,14Z)5,8,11,14-eicosatetraenoic acid (AA-d8, 0.5 nmol/mL IPA) and [5,6,8,9,11,12,14,15-D8]-(5Z,8Z,11Z,14Z)-5,8,11,14-eicosatetraenoyl-2-glycerol ester (2-AG-d8, 0.5 nmol/mL IPA)), and the mixture was centrifuged at 15000 rpm for 5 min. The supernatant was injected to liquid chromatographymass spectrometer to perform quantitative analysis.
For liquid chromatography, Shimadzu LC20A system (Shimadzu Corporation) was used. The separation was performed by gradient elution method with mobile phase A (10 mmol/L HCOONH4/HCOOH (100:0.2, v/v)) and mobile phase B (ethanol/IPA (3:2, v/v)) using Shim-pack XR-ODS (2.2 μm, 2.0×30 mm, Shimadzu Corporation) at column temperature of 50° C., at flow rate of 0.5 mL/min. The gradient conditions are as follows: 0-1 min, 1% B; 1-1.2 min, 1-55% B; 1.2-2.7 min, 55-75% B; 2.7-3.5 min, 75-99% B; 3.5-6 min, 99% B; 6-8 min, 1% B.
For mass spectrometer, API5000 (AB SCIEX) was used. The eluate from the liquid chromatography was directly ionized by turbospray ionization method, where (5Z,8Z,11Z,14Z)5,8,11,14-eicosatetraenoic acid (AA) and AA-d8 were measured by negative ionization mode, and (5Z,8Z,11Z,14Z)5,8,11,14-eicosatetraenoyl-2-glycerol ester (2-AG) and 2-AG-d8 were measured by positive ionization mode.
A solution for calibration curve was prepared to the concentration of 2, 5, 10, 20, 50, 100, 200, 500, 1000 nmol/mL of acetonitrile. These solutions (10 μL) was mixed with 200 μL of IPA and 5 μL of internal standard solution, and the mixture was centrifuged at 15000 rpm for 5 min, and the supernatant was injected to liquid chromatography mass spectrometer to perform analysis. The calibration curve was drawn by regression line with a weighting of 1/x^2, and the quantitativity was confirmed by accuracy of 100±20% and R^2>0.99.

[3] = test compound 10 μM, His-hMAGL, substrate 2-arachidonylglycerol, 60 min preincubation

## O=C1N[C@]2(CO1)C[C@H](C(=O)N1CC(OCc3ccc(C(F)(F)F)cc3F)C1)C2 [Example 6, (2s,4s)-2-((3-((2-fluoro-4-(trifluoromethyl)benzyl)oxy)azetidin-1-yl)carbonyl)-7-oxa-5-azaspiro[3.4]octan-6-one]
[1]; [3]
  inhibition at 10 µM: 100%
[2]
  2-AG concentration: 124.5 nmol/g
  arachidonic acid concentration: 31.7 nmol/g
  migration into brain: migrated into brain
  intracerebral 2-AG concentration compared to control: increased significantly
  intracerebral arachidonic acid concentration compared to control: decreased significantly

## Cc1cc(C(F)(F)F)ccc1COC1CN(C(=O)[C@H]2C[C@]3(COC(=O)N3)C2)C1 [Example 93, (2s,4s)-2-((3-((2-methyl-4-(trifluoromethyl)benzyl)oxy)azetidin-1-yl)carbonyl)-7-oxa-5-azaspiro[3.4]octan-6-one]
[1]; [3]
  inhibition at 10 µM: 100%
[2]
  2-AG concentration: 125.2 nmol/g
  arachidonic acid concentration: 42.6 nmol/g
  migration into brain: migrated into brain
  intracerebral 2-AG concentration compared to control: increased significantly
  intracerebral arachidonic acid concentration compared to control: decreased significantly

## Cc1ccc(COC2CN(C(=O)[C@H]3C[C@]4(COC(=O)N4)C3)C2)cc1Cl [Example 97, (2s,4s)-2-((3-((3-chloro-4-methylbenzyl)oxy)azetidin-1-yl)carbonyl)-7-oxa-5-azaspiro[3.4]octan-6-one]
[1]
  inhibition at 10 µM: 100%
[2]
  2-AG concentration: 131.9 nmol/g
  arachidonic acid concentration: 60.9 nmol/g
  migration into brain: migrated into brain
  intracerebral 2-AG concentration compared to control: increased significantly
  intracerebral arachidonic acid concentration compared to control: decreased significantly

## Cc1ccc(COC2CN(C(=O)[C@H]3C[C@@]4(COC(=O)N4)C3)C2)cc1Cl [Example 123, (2r,4r)-2-((3-((3-chloro-4-methylbenzyl)oxy)azetidin-1-yl)carbonyl)-7-oxa-5-azaspiro[3.4]octan-6-one]
[1]; [3]
  inhibition at 10 µM: 99%

## CC(Oc1ccc(F)c(F)c1F)C1CCN(C(=O)[C@H]2C[C@]3(CCC(=O)N3)C2)CC1 (some centres unmarked) [Example 74, (2r,4s)-2-((4-(1-(2,3.4-trifluorophenoxy)ethyl)piperidin-1-yl)carbonyl)-5-azaspiro[3.4]octan-6-one]
[1]; [3]
  inhibition at 10 µM: 101%
